Key:
[1] = test system: Organotypic hippocampal slice cultures (CA1 cell layer); test: Hypoxic neuronal damage in organotypic hippocampal slice cultures (PI fluorescence in CA1); type: cell-based, Wistar rat
Procedure: Organotypic hippocampal slice cultures were prepared using the basic method of Pringle et al (1996, 1997) modified as follows:
Wistar rat pups (8-11 days old) were decapitated and the hippocampus rapidly dissected into ice-cold Gey's balanced salt solution supplemented with 4.5 mg/ml glucose. Slices were separated and plated onto Millicell CM culture inserts (4 per well) and maintained at 37′C./5% CO2 for 14 days. Maintenance medium consisted of 25% heat-inactivated horse serum, 25% Hank's balanced salt solution (HBSS) and 50% minimum essential medium with added Earle's salts (MEM) supplemented with 1 mM glutamine and 4.5 mg/ml glucose. Medium was changed every 3-4 days.
Experimental hypoxia was performed as described previously (Pringle e al., 1996; 1997). Briefly, cultures were transferred to serum free medium (SFM—75% MEM, 25% HBSS supplemented with 1 mM glutamine and 4.5 mg/ml glucose) containing 5 μg/ml of the fluorescent exclusion dye propidium iodide (PI). Cultures were allowed to equilibrate in SFM for 60 minutes prior to imaging. PI fluorescence was detected using a Leica inverted microscope fitted with a rhodamine filter set. Any cultures in which PI fluorescence was detected at this stage were excluded from further study. Hypoxia was induced by transferring cultures to SEM (+PI) which had been saturated with 95% N2/5% CO2. Culture plates (without lids) were then sealed into an airtight chamber in which the atmosphere was saturated with 95% N2/5% CO2 by continuously blowing through gas at 10 L/min for ten minutes before being sealed and placed in the incubator for 170 mins (total time of hypoxia was therefore 180 mins). At the end of the hypoxic period cultures were returned to normoxic SFM containing PI and placed back in the incubator for 24 hours.
Neuronal damage was assessed as described previously (Pringle et al., 1996; 1997) using either NIH Image 1.60 running on an Apple IIsi computer or OpenLab 2.1 (Improvision) running on a Macintosh G4/400. Images were captured using a monochrome camera and saved onto optical disk for offline analysis. Light transmission images were captured prior to the addition of drugs, and PI fluorescence images recorded at the end of the 24-hour post-hypoxia recovery period. The area of the CA1 cell layer was determined from the transmission image. The area of PI fluorescence in CA1 was measured using the density slice function within NIH Image or OpenLab, and neuronal damage expressed as the percentage of the CA1 in which PI fluorescence was detected above background.
Steroid compounds were prepared by making an initial 1 mg/ml solution in ethanol and further diluting down in SFM. Compounds were added to the cultures for 45 minutes prior to hypoxia, during the hypoxic episode and during the post-hypoxic recovery period. Control experiments consisted of cultures treated with vehicle alone.

[2] = test system: hippocampal CA1 pyramidal cells; test: Global cerebral ischemia in rats (4 vessel occlusion), surviving CA1 neurons by Nissl staining; type: in vivo, male Wistar rats
Procedure: Cerebral ischemia was induced by four-vessel-occlusion (4VO) in male Wistar rats (250-280 g). Both vertebral arteries were occluded by electrocauterization in pentobarbital anesthesia (60 mg/kg i.p.). The animals were allowed to recover for 24 hours with free access to water but not food. The next day the carotid arteries were exposed under 2% halothane in 30% oxygen/70% nitrous oxide anesthesia and were occluded for 10 minutes using microvascular claps. Subsequently, both clamps were removed and both arteries were inspected for immediate reperfusion. During the operation and the following 3 hours normothermia of the animals (37.5±0.5° C.) was maintained by using a thermostatically controlled heating blanket connected to a rectal thermometer. For control, in sham-operated animals both vertebral arteries were cauterized in pentobarbital anesthesia and both common carotid arteries were exposed but not clamped under 2% halothane in 30% oxygen/70% nitrous oxide anesthesia the following day. The wound was treated with lidocaine gel and then sutured. The animals were kept under a heating lamp at 30° C. environmental temperature until they regained consciousness.
Seven groups of animals were investigated: • 1. (n=8) steroid compound, 7β-OH EPIA (0.1 mg/kg, i. v. via tail vein, three injections: 15 minutes prior to the induction of ischemia, during ischemia and 5 minutes after reperfusion); • 2. (n=8) steroid compound, 7β-OH EPIA (0.3 mg/kg, i. v. three injections as described in 1.); • 3. (n=8) steroid compound, 7β-OH EPIA (1 mg/kg, i. v., three injections as described in 1.); • 4. (n=8) NBQX (disodium salt, because more water soluble) as reference substance and positive control (TOCRIS, Germany, 30 mg/kg, i. p., three injections as described in 1.); • 5. (n=8) received vehicle (0.9% NaCl, containing 100 μl Ethanol) three injections as described in 1.); • 6. (n=8) ischemia alone; • 7. (n=8) sham operated controls.
The substances were dissolved in 100 μl Ethanol and finally diluted with 0.9% NaCl.
After a survival time of 7 days after ischemia, all animals were perfusion fixed transcardially with 4% paraformaldehyde. The brains were then removed carefully and postfixed in the same fixative for 2 hours. After cryoprotection in 30% sucrose, the brains were rapidly frozen in isopentane and stored at −80° C. Twenty-micrometer cryostat sections comprising the hippocampal formation were Niss1 stained with toluidine blue or NeuroTrace fluorescence.
The severity of neuronal damage in the hippocampal CA1 region after ischemia was evaluated by the number of surviving neurons using Niss1 staining. The mean number of morphologically intact neurons per 400 μm length was calculated in CA1 region for each group. Cell counting was performed in 3-5 serial sections per animal and 6 times 400 μm CA1 area per section using a light microscope equipped with a 20× objective. The data were statistically analyzed by paired Student's t-test. Data were presented as mean±SEM.

[3] = 30 mg/kg, three injections, 10 min global ischemia, 7 days survival
[4] = Experiment 1, 100 nM pre-, during and post-hypoxia
[5] = Experiment 1, 100 nM present pre-, during and post-hypoxia, control hypoxia 25.5 ± 6.4

C[C@]12CC[C@H](O)CC1=C[C@H](O)[C@@H]1[C@@H]2CC[C@]2(C)C(=O)CC[C@@H]12 [Example 7βOH-DHEA, 7β-hydroxy-DHEA]
Reduction in neuronal damage (in words) ([1]; Experiment 3, 100 nM pre-, during and post-hypoxia): large, highly significant, reduction in neuronal damage | % Damage in CA1 ([1]; Experiment 3, 100 nM pre-, during and post-hypoxia, control hypoxia 29.0 ± 6.2): 4.2 ± 1.9 %

NS(=O)(=O)c1cccc2c1c([N+](=O)[O-])cc1nc(O)c(O)nc12 [NBQX, 2,3-dihydroxy-6-nitro-7-sulfamoyl-benzo(F)quinoxaline, reference compound]
Neuroprotection in CA1 pyramidal cells compared to the ischemia group (in words, t-test) ([2]; 30 mg/kg, three injections): significant (p=0.03) neuroprotection | Neuroprotection compared to the ischemia alone [2, 3]: 47.5% | Protective effect compared to the sham operated animals [2, 3]: 68.5%

C[C@]12CC[C@H](O)C[C@@H]1C[C@H](O)[C@@H]1[C@@H]2CC[C@]2(C)C(=O)CC[C@@H]12 [Example 7βOH-EPIA, 7β-hydroxyepiandrosterone]
Reduction of hypoxic damage in CA1 (in words) [1, 4]: significantly reduced | % Damage in CA1 [1, 5]: 9.0 ± 4.7 % | Neuroprotection against hypoxia (in words) ([1]; Experiment 2, 1 nM): activity was lost | % Damage in CA1 ([1]; Experiment 2, 1 nM, control hypoxia 31.9 ± 4.7): 20.6 ± 7.2% | Neuroprotection against hypoxia (in words) ([1]; Experiment 2, 10 nM and 100 nM): significantly neuroprotective | % Damage in CA1 ([1]; Experiment 2, 10 nM, control hypoxia 31.9 ± 4.7): 11.9 ± 4.7 % | % Damage in CA1 ([1]; Experiment 2, 100 nM, control hypoxia 31.9 ± 4.7): 14.3 ± 5.0 % | Neuroprotective effect (in words, t-test) ([2]; 0.1 mg/kg (p=0.01) and 0.3 mg/kg (p=0.0008) i.v.): highly significant neuroprotective effect | Neuroprotective effect on CA1 pyramidal cells compared to the sham operated group (FIG. 1C) ([2]; 0.1 mg/kg i.v., three injections, 10 min global ischemia, 7 days survival): 74.8% | Neuroprotective effect on CA1 pyramidal cells compared to the sham operated group (FIG. 1C) ([2]; 0.3 mg/kg i.v., three injections, 10 min global ischemia, 7 days survival): 83.9% | Neuroprotection of CA1 pyramidal cells (in words) ([2]; 1.0 mg/kg i.v., three injections): only a tendency to neuroprotection, but the effect was not significant | Behavioral abnormalities of the animals ([2]; injected i.v. prior, during and after ischemia, all experiments): never observed any behavioral abnormalities

C[C@]12CC[C@H](O)C[C@@H]1C[C@@H](O)[C@@H]1[C@@H]2CC[C@]2(C)C(=O)CC[C@@H]12 [Example 7αOH-EPIA, 7α-Hydroxy-EPIA]
Reduction of hypoxic damage in CA1 (in words) [1, 4]: significantly reduced | % Damage in CA1 [1, 5]: 4.0 ± 2.9 %

Reference: patent US20100130459A1, “NEUROPROTECTIVE 7-BETA-HYDROXYSTEROIDS” (Hunter-Fleming Limited, priority 2000, published 2010)
